Data on eleven compounds can be found in ChEMBL document CHEMBL1201862, “PubChem BioAssay data set” (2004).

Among the test systems are M14; LOX IMVI; SK-MEL-5; SF-268; 786-0; RPMI-8226; UO-31; SNB-19; IGROV-1; OVCAR-8; U-251; EKVX; LXFL 529; KM12; HCC 2998; UACC-257; DU-145; MDA-MB-435; CAKI-1; SF-539.
Holding throughout (test): NCI tumour cell line growth inhibition, 48 h

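Dose response: 5 concentrations. Exposure: 48 h. Format: 96-well plates. Endpoint: linear interpolation; highest concentration if not reached. Abbreviation: GI50, concentration required for 50% inhibition of growth.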 Calls of active or inactive are those of the source. Rule as the data show it: active = GI50 up to about 1.1 µM and inactive = higher.

Turning to `CC(C(=O)N1C(=O)N(C(=O)C(C)C(O)c2ccccc2)C2CCCCC21)C(O)c1ccccc1` (centres undefined), the GI50 in the test with M14 was 79.8 µM (inactive); in the test with LOX IMVI, 79.4 µM (inactive); in the test with SK-MEL-5, 30.1 µM (inactive); in the test with SF-268, > 100 µM (inactive); with 786-0, > 100 µM (inactive); in the test with RPMI-8226, 34 µM (inactive). Besides, the GI50 was 34.6 µM (inactive) in the test with UO-31; 92.7 µM (inactive) in the test with SNB-19; > 100 µM (inactive) in the test on IGROV-1; 88.3 µM (inactive) in the test with OVCAR-8; > 100 µM (inactive) in the test with U-251; 81.3 µM (inactive) in the test with EKVX. The GI50 in the test with LXFL 529 was 44.1 µM (inactive); in the test on KM12 it was 37.1 µM (inactive).
On to `COc1ccccc1NC(=S)N/N=C/c1cccc(C)n1`, for which the GI50 was 2.18 µM (inactive) with M14; 2.3 µM (inactive) in the test on LOX IMVI; 4.17 µM (inactive) with SK-MEL-5; 6.97 µM (inactive) in the test on SF-268; 2.9 µM (inactive) in the test with 786-0; 2.11 µM (inactive) in the test with RPMI-8226. For the same compound, the GI50 in the test on HCC 2998 was 10.5 µM (inactive); in the test with UACC-257, 3.33 µM (inactive); with DU-145, 4.29 µM (inactive); in the test on MDA-MB-435, 5.16 µM (inactive); in the test with UO-31 it was 3.57 µM (inactive); in the test with SNB-19, 10.9 µM (inactive). Besides, the GI50 with IGROV-1 is 4.06 µM (inactive); with CAKI-1, 4.75 µM (inactive); in the test on OVCAR-8 it was 4.07 µM (inactive); in the test with U-251, 4.26 µM (inactive); with EKVX it was 4.67 µM (inactive); in the test with SF-539, 4.89 µM (inactive). In addition, the GI50 in the test on KM12 is 6.25 µM (inactive).
Consider `O=C1/C(=C/c2ccc(O)cc2)CC/C1=C\c1ccc(O)cc1`, for which the GI50 was > 100 µM (inactive) in the test with M14; > 100 µM (inactive) in the test on LOX IMVI; > 100 µM (inactive) in the test with SK-MEL-5; > 95.1 µM (inactive) with SF-268; > 41 µM (inactive) with 786-0; 49.3 µM (inactive) in the test with RPMI-8226. Further, the GI50 with HCC 2998 is > 100 µM (inactive); in the test on UACC-257, > 100 µM (inactive); with DU-145, > 100 µM (inactive); in the test with MDA-MB-435 it was > 100 µM (inactive); in the test on UO-31, 51.2 µM (inactive); in the test with SNB-19, > 87.1 µM (inactive). Moreover, the GI50 in the test with IGROV-1 is > 100 µM (inactive); with CAKI-1, 34.5 µM (inactive); in the test with OVCAR-8, > 81.5 µM (inactive); with U-251, 53.1 µM (inactive); with EKVX, 99.8 µM (inactive); in the test on SF-539, 22.6 µM (inactive). In addition, the GI50 in the test on KM12 is > 100 µM (inactive).
Regarding `CCCC[N+](CCCC)(CCCC)CCCC.O=S(=O)([O-])ON=C1c2ccccc2-c2ccccc21`, the GI50 in the test on M14 was > 100 µM (inactive); in the test on LOX IMVI, > 100 µM (inactive); in the test with SK-MEL-5, 61.5 µM (inactive); with SF-268, > 100 µM (inactive); with 786-0, > 100 µM (inactive); in the test with RPMI-8226 it was 50.8 µM (inactive). For the same compound, the GI50 in the test on HCC 2998, in the test with UACC-257, in the test on DU-145, in the test with MDA-MB-435, in the test on UO-31 and in the test on SNB-19 was > 100 µM (inactive) each time. The GI50 with IGROV-1, with CAKI-1, in the test on OVCAR-8, in the test with U-251, with EKVX and in the test with SF-539 was > 100 µM (inactive) in each case. Besides, the GI50 in the test with KM12 was > 100 µM (inactive).
Turning to `O=C(NC/C=C/Br)NC1CCNc2ccccc21` (centres undefined), the GI50 is 17.7 µM (inactive) in the test on M14; 25.6 µM (inactive) in the test on LOX IMVI; 19.5 µM (inactive) with SK-MEL-5; 77.4 µM (inactive) in the test with SF-268; 26.6 µM (inactive) in the test with 786-0; 27.2 µM (inactive) in the test on RPMI-8226. For the same compound, the GI50 in the test on HCC 2998 was 27.9 µM (inactive); with UACC-257 it was 21.8 µM (inactive); with DU-145 it was 52.1 µM (inactive); in the test on MDA-MB-435, 31.6 µM (inactive); in the test with UO-31, 27.8 µM (inactive); in the test with SNB-19 it was 41.3 µM (inactive). The GI50 was 76.6 µM (inactive) with IGROV-1; 42.1 µM (inactive) in the test with CAKI-1; 52.7 µM (inactive) with OVCAR-8; 73.8 µM (inactive) in the test on U-251; 47.6 µM (inactive) in the test on EKVX; 20.5 µM (inactive) in the test on SF-539. For the same compound, in the test with KM12, the GI50 was 38.2 µM (inactive).
On to `O=C(O)CCC(NC(=O)c1ccc(Nc2cnc3ccc(C(F)(F)F)cc3n2)cc1)C(=O)O` (centres undefined), for which the GI50 with M14, in the test on LOX IMVI, with SK-MEL-5, in the test on SF-268, in the test on 786-0 and in the test with RPMI-8226 was > 100 µM (inactive) each time. The GI50 in the test with HCC 2998, in the test on UACC-257, in the test on DU-145, in the test with MDA-MB-435, with UO-31 and in the test on SNB-19 was > 100 µM (inactive) each time. In addition, the GI50 in the test with IGROV-1, in the test with CAKI-1, with OVCAR-8, in the test with U-251, in the test with EKVX and with SF-539 was > 100 µM (inactive) throughout. In addition, the GI50 in the test with KM12 was > 100 µM (inactive).
`C=C1C(=O)OC2C1CC(OC(C)=O)/C(C)=C/CCC1(C)OC21` (centres undefined): the GI50 with M14, with LOX IMVI, in the test with SK-MEL-5, in the test on SF-268, in the test with 786-0 and in the test with RPMI-8226 was > 100 µM (inactive) throughout. Besides, the GI50 in the test with HCC 2998, in the test with UACC-257, in the test with DU-145, with MDA-MB-435, in the test on UO-31 and in the test with SNB-19 was > 100 µM (inactive) throughout. In addition, the GI50 in the test with IGROV-1, in the test with CAKI-1, with OVCAR-8, with U-251, with EKVX and with SF-539 was > 100 µM (inactive) in each case. Also, the GI50 in the test with KM12 is > 100 µM (inactive).
For the compound `COc1cc(Oc2nc3c(N)cc(C(F)(F)F)cc3nc2-c2ccccc2)cc(OC)c1OC`, the GI50 in the test on M14 is 5.81 µM (inactive); in the test on LOX IMVI, 3.48 µM (inactive); in the test with SK-MEL-5, 2.77 µM (inactive); with SF-268, 4.66 µM (inactive); in the test with 786-0, 3.97 µM (inactive); with RPMI-8226 it was 2.45 µM (inactive). Besides, the GI50 in the test on HCC 2998 is 5.36 µM (inactive); with UACC-257, 4.09 µM (inactive); in the test with DU-145, 8.55 µM (inactive); in the test on MDA-MB-435, 0.445 µM (active); in the test on UO-31 it was 11.2 µM (inactive); in the test on SNB-19, 3.17 µM (inactive). Besides, the GI50 in the test on IGROV-1 was 0.916 µM (active); with CAKI-1 it was 3.98 µM (inactive); in the test with OVCAR-8, 4.91 µM (inactive); in the test with U-251, 5.9 µM (inactive); in the test with EKVX, 13.1 µM (inactive); in the test with SF-539, 3.4 µM (inactive). Also, the GI50 in the test on KM12 was 2.17 µM (inactive).
Turning to `N#CCC1C2CC3C(C2=O)C13` (centres undefined), the GI50 in the test on M14, with LOX IMVI, in the test with SK-MEL-5, in the test on SF-268, in the test on 786-0 and in the test on RPMI-8226 was > 100 µM (inactive) throughout. Further, the GI50 in the test on HCC 2998, in the test with UACC-257, in the test with DU-145, with MDA-MB-435, in the test with UO-31 and in the test with SNB-19 was > 100 µM (inactive) throughout. The GI50 in the test with IGROV-1, with CAKI-1, with OVCAR-8, in the test on U-251, with EKVX and in the test on SF-539 was > 100 µM (inactive) in each case. Moreover, in the test on KM12, the GI50 is > 100 µM (inactive).
As to `CC1=NN(c2cccc(Cl)c2)C2(C1)SCC(=O)N2c1nc2ccccc2s1` (centres undefined), the GI50 was 26.7 µM (inactive) in the test with M14; 20.2 µM (inactive) with LOX IMVI; 17.5 µM (inactive) in the test on SK-MEL-5; 31.2 µM (inactive) in the test on SF-268; 21.8 µM (inactive) with 786-0; 16.3 µM (inactive) in the test with RPMI-8226. Further, the GI50 with HCC 2998 was 17.9 µM (inactive); in the test with UACC-257, 22.4 µM (inactive); with DU-145 it was 24.6 µM (inactive); with MDA-MB-435 it was 25 µM (inactive); in the test with UO-31 it was 21.1 µM (inactive); in the test on SNB-19, 36 µM (inactive). For the same compound, the GI50 in the test with IGROV-1 was 21.9 µM (inactive); with CAKI-1, 32.6 µM (inactive); in the test on OVCAR-8, 35.6 µM (inactive); in the test with U-251, 27 µM (inactive); in the test on EKVX, 29.7 µM (inactive); in the test with SF-539 it was 22.8 µM (inactive). Moreover, the GI50 with KM12 was 25.5 µM (inactive).
Take `Cc1ccc(O)c(-c2cc(-c3cccc(Br)c3)on2)c1`: the GI50 in the test on M14 is 36.8 µM (inactive); in the test with LOX IMVI, 16.3 µM (inactive); in the test on SK-MEL-5 it was 18.1 µM (inactive); in the test with SF-268, 24.2 µM (inactive); with 786-0, 40.4 µM (inactive); in the test with RPMI-8226, 25.2 µM (inactive). Besides, the GI50 was 22.4 µM (inactive) in the test on HCC 2998; 48.8 µM (inactive) in the test on UACC-257; 33.6 µM (inactive) in the test on DU-145; 21.7 µM (inactive) in the test with MDA-MB-435; 70.3 µM (inactive) in the test on UO-31; 39.3 µM (inactive) with SNB-19. Further, the GI50 is 14.5 µM (inactive) with IGROV-1; 23.4 µM (inactive) in the test with CAKI-1; 25.8 µM (inactive) with OVCAR-8; 17 µM (inactive) with U-251; 34.4 µM (inactive) in the test on EKVX; 28.8 µM (inactive) in the test with SF-539. Besides, the GI50 in the test with KM12 was 20.3 µM (inactive).
